Laboratory results published in a compilation of properties of binary mixtures (doi:10.1039/b315616h).

Experiment: xn = mol fraction of the nth substance listed
Conditions: 101.3 kPa, x2 = 0.865

CCCCCC[n+]1ccn(C)c1.F[B-](F)(F)F + CCCCCO
Conditions	viscosity [mPa·s]
314.94 K	5.47
315.04 K	5.22
315.1 K	5.14
315.15 K	5.09
315.2 K	5.04
315.24 K	5
315.3 K	4.96
315.44 K	4.87
315.54 K	4.83
315.58 K	4.8
315.71 K	4.76
315.75 K	4.74
315.88 K	4.7
315.91 K	4.69
315.94 K	4.68
315.98 K	4.67
316.07 K	4.64
316.22 K	4.6
316.42 K	4.54
316.73 K	4.46
317.23 K	4.35
319.34 K	3.98
321.14 K	3.74
323.16 K	3.51
325.69 K	3.262
328.15 K	3.047
